Test results taken from PubChem BioAssay AID1645866 (Buhrlage Lab, Dana-Farber Cancer Institute and Novartis …, 2021).
pIC50: −log10 of the molar value. Activity calls are given as the source filed them.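 Rule for the calls: active = in confirmatory dose-response testing, peak deubiquitinase inhibition of 30% or more; inactive = the rest.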

Biological target: Ubiquitin carboxyl-terminal hydrolase 28 (Homo sapiens) (UniProt Q96RU2)
Assay: Ubiquitin-specific peptidase 28 DUB inhibitors, biochemical concentration-dependence assay, validation of primary screening hits (AID 1645866)
Conditions: purified USP28, ubiquitin-rhodamine fluorescence, 30 min

Sequence of Ubiquitin carboxyl-terminal hydrolase 28 (Homo sapiens) (Q96RU2 whole entry, looked up): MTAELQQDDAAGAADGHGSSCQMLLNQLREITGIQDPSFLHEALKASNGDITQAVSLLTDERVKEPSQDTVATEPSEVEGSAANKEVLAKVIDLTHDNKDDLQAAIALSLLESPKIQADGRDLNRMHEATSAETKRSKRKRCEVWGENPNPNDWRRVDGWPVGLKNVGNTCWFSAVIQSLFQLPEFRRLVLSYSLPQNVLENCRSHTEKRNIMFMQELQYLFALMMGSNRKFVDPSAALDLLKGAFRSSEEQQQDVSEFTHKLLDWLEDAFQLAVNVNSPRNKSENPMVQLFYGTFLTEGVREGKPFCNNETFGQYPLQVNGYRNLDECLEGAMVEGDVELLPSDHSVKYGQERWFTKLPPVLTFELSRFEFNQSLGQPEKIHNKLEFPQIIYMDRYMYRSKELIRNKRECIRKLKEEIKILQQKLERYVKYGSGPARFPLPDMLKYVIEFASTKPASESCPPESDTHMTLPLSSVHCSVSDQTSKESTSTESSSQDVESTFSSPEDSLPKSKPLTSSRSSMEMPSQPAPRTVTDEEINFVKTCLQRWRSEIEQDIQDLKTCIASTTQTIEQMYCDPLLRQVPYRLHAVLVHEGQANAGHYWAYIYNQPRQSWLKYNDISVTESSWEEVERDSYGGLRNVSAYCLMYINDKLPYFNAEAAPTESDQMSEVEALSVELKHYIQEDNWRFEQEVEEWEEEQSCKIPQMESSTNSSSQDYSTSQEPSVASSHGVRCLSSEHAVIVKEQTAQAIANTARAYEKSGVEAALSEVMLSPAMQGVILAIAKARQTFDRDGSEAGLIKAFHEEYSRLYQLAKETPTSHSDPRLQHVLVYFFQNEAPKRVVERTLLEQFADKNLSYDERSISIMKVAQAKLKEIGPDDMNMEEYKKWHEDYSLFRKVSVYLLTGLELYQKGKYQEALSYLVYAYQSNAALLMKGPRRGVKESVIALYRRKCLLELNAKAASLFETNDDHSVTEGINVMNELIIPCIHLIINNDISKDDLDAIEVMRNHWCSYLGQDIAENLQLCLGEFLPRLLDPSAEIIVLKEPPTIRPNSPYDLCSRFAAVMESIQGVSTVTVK

Row | Compound | pIC50 | IC50
1 | CCN(c1ccc(NC(=O)CSc2nnc(-c3ccccc3)n2-c2ccc(OC)c(OC)c2)cc1)C(C)C | 5.21 | –
2 | COc1ccccc1-c1nc(-c2nnn(Cc3cccc(F)c3)c2C)no1 | 4.98 | –
3 | Fc1cc(F)c2[nH]cc(-c3nnnn3-c3ccc4ccccc4c3)c2c1 | 4.66 | –
4 | CCOc1ccc(NC(=O)Cn2cc(C(=O)c3ccc(Cl)cc3)c(=O)c3cc(OC)ccc32)cc1 | 5.36 | –
5 | Cn1c2ccccc2c(=O)c2c(=O)n(Cc3ccccc3)c(-c3ccco3)nc21 | 5.91 | –
6 | O=C1C=C(O)c2c(O)cccc2C1=O | 4.80 | –
7 | O=C(CCCCn1c(=O)c2ccccc2n(Cc2ccccc2F)c1=O)NCCc1ccccc1 | 4.81 | –
8 | COc1cc(OC)c2c(c1)C(=O)C1=C(COC(C)(O)C1)C2=O (stereo not given) | – | > 50 µM (inactive)
9 | Cc1cc(=O)n(C)c2c(O)c3c(cc12)c(C)cc(=O)n3C | 4.36 | –
10 | COCCCn1c(C(=O)Nc2ccccc2OC)cc2c(=O)n3ccccc3nc21 | 4.52 | –
11 | COc1ccccc1NS(=O)(=O)c1cccc(NC(=O)CCc2nc3ccccc3s2)c1 | 4.88 | –
12 | O=C(Cn1c(=O)nc(-c2ccccc2)c2ccccc21)NCc1ccc2c(c1)OCO2 | 4.55 | –
13 | Cc1ccc(S(=O)(=O)Nc2ccccc2SCCS(=O)(=O)c2ccc(Cl)cc2)cc1 | – | > 50 µM (inactive)
14 | COc1c2nc3ccccc3oc-2cc(=O)c1OC | – | > 50 µM (inactive)
15 | C=C(NC(=O)C(=C)NC(=O)c1csc(C2=N[C@@H]3c4csc(n4)[C@H]4NC(=O)c5csc(n5)[C@H]([C@](C)(O)[C@@H](C)O)NC(=O)[C@H]5CSC(=N5)/C(=C/C)NC(=O)C([C@@H](C)O)NC(=O)c5csc(n5)C3(CC2)NC(=O)[C@H](C)NC(=O)C(=C)NC(=O)[C@H](C)NC(=O)C([C@@H](C)CC)N[C@@H]2C=Cc3c(C(C)O)cc(nc3[C@H]2O)C(=O)OC4C)n1)C(N)=O (stereo not given in full) | – | > 50 µM (inactive)
16 | O=C(COc1ccc(Cl)cc1)NCc1nnc(SCC(=O)NCc2ccc3c(c2)OCO3)o1 | 4.55 | –
17 | CCn1ccc2c(cc(C(=O)Nc3ccccc3F)n2C)c1=O | 4.82 | –
18 | c1csc(CCN2CCc3nc4cccnc4cc3C2)c1 | – | > 50 µM (inactive)
19 | Cc1cc(-c2cnc(N(C)C)nc2-c2ccc(CNC(=O)Cc3ccc(F)cc3)cc2)on1 | 4.54 | –
20 | CC1(C)CC(n2[nH]c(=O)c3c2NC(=O)CSC3c2ccc(OCc3ccccc3)cc2)CCO1 (stereo not given) | 4.75 | –
21 | CCn1c(=N)n(CCOc2ccc(F)cc2)c2ccccc21 | 6.23 | –

Row | Compound | pIC50 | IC50
22 | Fc1cccc(Cn2cc(-c3noc(-c4ccncc4)n3)nn2)c1 | 4.60 | –
23 | COc1cccc(NC(=O)CSc2nnc(-c3cc4cccc(OC)c4o3)n2C)c1 | 4.84 | –
24 | COc1cc(NC(=O)Cc2ccccc2)ccc1NC(=O)c1cc2ccccc2o1 | 5.52 | –
25 | N#Cc1ccc(-c2ccc(OCC(=O)Nc3ccc4c(c3)OCO4)cc2)cc1 | 4.94 | –
26 | CCCCCn1c(Sc2ccc(C)cc2)nc2c1c(=O)[nH]c(=O)n2C | 4.84 | –
27 | COc1ccc(-c2cc(-c3nnc(CSc4nc5ccccc5n4C)o3)c3ccccc3n2)cc1OC | – | > 50 µM (inactive)
28 | COCCNC(=O)c1ccn(-c2ccc3ccc(-c4cnn(C)c4)cn23)n1 | – | > 50 µM (inactive)
29 | Cc1ccc(Nc2nc(Nc3cccc(Cl)c3)nc3nccnc23)cc1 | – | > 50 µM (inactive)
30 | O=S(=O)(Nc1ccc2oc(-c3ccncc3)nc2c1)c1ccccc1 | 4.39 | –
31 | CN1C(=O)[C@@]23C[C@]4([C@@]56C[C@]78SS[C@](CO)(C(=O)N7[C@@H]5Nc5ccccc56)N(C)C8=O)c5ccccc5N[C@@H]4N2C(=O)[C@]1(CO)SS3 | – | > 50 µM (inactive)
32 | COc1ccc(Cl)cc1NC(=O)Cn1c(=O)cc(C)c2c(C)nn(-c3ccccc3)c21 | 5.26 | –
33 | CC[C@H](C)[C@H](NC(=O)[C@H]([C@@H](C)CC)N(C)C(C)=O)C(=O)N[C@H](C(=O)N[C@@H](CC(C)C)C(=O)C1(C)CO1)[C@@H](C)O (stereo not given in full) | – | > 50 µM (inactive)
34 | COc1ccc(-c2cc3nc(C)cc(Nc4ccc(F)cc4)n3n2)cc1OC | – | > 50 µM (inactive)
35 | Cn1ccnc1CN1C[C@H]2CCN(c3ncccn3)C[C@H]2C1 | – | > 50 µM (inactive)
36 | COC1C(O)=C2C(=O)O/C(C)=C/C=C/C=C/C=C/CC(c3ccccc3)NC(=O)/C=C/C=C/C=C\C=C\C2(C)C1O (stereo not given) | – | > 50 µM (inactive)
37 | CC(=O)O[C@H]1[C@]2(O)C[C@]34SS[C@](CO)(C(=O)N3[C@@H]2C[C@@]12O[C@@H](C)C(C)(C)C2=O)N(C)C4=O | – | > 50 µM (inactive)
38 | COc1ccc(OCCn2c(C3CC(=O)N(c4cccc(C)c4)C3)nc3ccccc32)cc1 (stereo not given) | 5.80 | –
39 | COc1ccc(OC)c(-c2cc(C(=O)Nc3c(C)nn(Cc4ccccc4)c3C)no2)c1 | 5.74 | –
40 | COC(=O)c1sccc1NC(=O)COc1ccsc1C(=O)OC | 4.59 | –
41 | CC1(O)CC(=O)c2c(cc3cc(O)cc(O)c3c2O)C1 (stereo not given) | 7.17 | –

Results, then the compound that gave them:

Row | pIC50 | IC50 | Compound
42 | 4.59 | – | COc1ccc(CC(=O)Nc2ccc3nc(N4CCOCC4)cc(C)c3c2)cc1
43 | 4.77 | – | COc1ccc(NC(=O)c2sc(N3CCOCC3)nc2-c2ccccc2)c(OC)c1
44 | – | > 50 µM (inactive) | O=c1c2cnc3nc(-c4cccnc4)nn3c2ccn1CCc1ccccc1
45 | – | > 50 µM (inactive) | O=C(Cc1ccc(Cl)c(Cl)c1)OCC(=O)c1c[nH]c2ccccc12
46 | 4.69 | – | O=C(Nc1cccc(C(F)(F)F)c1)N1CCCn2c(nc3ccccc32)C1
47 | – | > 50 µM (inactive) | Cn1c(=O)c2c(ncn2CC(=O)NC2CCCc3ccccc32)n(C)c1=O (stereo not given)
48 | – | > 50 µM (inactive) | FC(F)(F)c1cccc(N2CCN(c3nc4ccccc4n4nnnc34)CC2)c1
49 | 5.81 | – | Cc1ccc(NC(=O)c2nnn(-c3ccccc3Br)c2C)cc1C
50 | 4.42 | – | COc1ccc(CN(C(=O)c2cc(-c3ccc(C)cc3)on2)C2CCS(=O)(=O)C2)cc1 (stereo not given)
51 | 4.39 | – | COc1ccc(CCC(=O)Nc2ccc3c(c2)Sc2ncccc2C(=O)N3C)cc1
52 | 4.94 | – | CCCCCC(=O)N1c2ccccc2NC2=C(C(=O)CC(c3ccc(C(C)(C)C)cc3)C2)C1c1ccncc1 (stereo not given)
53 | – | > 50 µM (inactive) | CC1=C[C@H]2N(c3ccc(C)cc31)[C@H](C(=O)c1cccs1)[C@@H](C(=O)c1ccc(F)cc1)[C@]21C(=O)Nc2ccccc21
54 | 6.26 | – | COc1ccc(Cl)cc1NC(=O)c1cc(-c2ccccn2)n[nH]1
55 | 4.47 | – | CCc1noc(-c2ccc(OCC(=O)Nc3ccc(C)cc3C)cc2)n1
56 | 4.43 | – | COc1ccc(CNC(=O)c2ccccc2N2C(=O)N3CCc4c([nH]c5ccccc45)[C@@]3(C)C2=O)cc1
57 | – | > 50 µM (inactive) | Cc1cccc(NC(=O)Cn2c(-c3cnccn3)nc(C)c(C)c2=O)c1C
58 | 4.80 | – | Cc1nc(-c2noc3ccc(C(=O)Nc4cccnc4)cc23)cs1
59 | – | > 50 µM (inactive) | O=C(NCCc1ccccn1)c1cn2ccnc(-c3ccc(F)cc3)c2n1
60 | – | > 50 µM (inactive) | COC(=O)c1cc2c(ccn2C)n1CC(=O)NC1CC1
61 | – | > 50 µM (inactive) | CC(C)OC(=O)c1cc2c(ccn2C)n1CC(=O)N1CCN(C(=O)c2ccco2)CC1
62 | 4.58 | – | COc1cccc(NC(=O)C2C3C=CC4(O3)C2C(=O)N(CCc2ccccc2Cl)C4C(=O)NC2CCCCC2)c1 (stereo not given)
63 | 4.30 | – | COc1ccc(C)cc1NC(=O)COc1ccc2c(c1)OCO2
64 | – | > 50 µM (inactive) | COc1ccc(C(=O)N2CCCC3(C2)Nc2cccnc2NC3=NC2CCCC2)cn1 (stereo not given)
65 | 4.72 | – | CC(=O)Nc1ccc(S(=O)(=O)N2CCCC(C(=O)Nc3cccc4ccccc34)C2)cc1 (stereo not given)
66 | 4.68 | – | O=C(COc1cccc2ccc(N3CCC(Cc4ccccc4)CC3)nc12)NCc1ccc(F)cc1
67 | 5.34 | – | CS(=O)(=O)N1CCCc2cc(C(=O)Nc3ccc4c(c3)OCO4)ccc21
68 | 5.16 | – | O=C(C(c1ccccc1)c1ccccc1)N1CCC(c2nc3c(nnn3Cc3c(F)cccc3Cl)c(=O)[nH]2)CC1

Row | pIC50 | IC50 | Compound
69 | 5.83 | – | Cc1cc(NC(=O)c2nnn(-c3ccccc3Cl)c2C)no1
70 | 4.35 | – | COc1ccc2c(C)c(CC(=O)N3CCC[C@H]3C(=O)O)c(=O)oc2c1C
71 | 5.77 | – | COc1ccc(Cn2cnc3c([nH]c4ccc(Br)cc43)c2=O)cc1
72 | 4.63 | – | O=C(Nc1ccccc1Sc1ncc(-c2ccc(Cl)cc2)cn1)c1ccco1
73 | 4.74 | – | O=C(Nc1ccccc1Br)c1ccn(COc2ccccc2F)n1
74 | – | > 50 µM (inactive) | CN(C)S(=O)(=O)N1CCCC2(C1)Nc1cccnc1NC2=NC1CCCC1 (stereo not given)
75 | 4.82 | – | Cc1cc(N2CCC(NC(=O)NCc3ccc(F)cc3)C2=O)ccc1F (stereo not given)
76 | 4.54 | – | CCCc1cc(=O)n2[nH]c(COc3ccccc3)c(-c3ccccc3)c2n1
77 | – | > 50 µM (inactive) | O=C(c1ccsc1)N1CCC2(C1)Nc1cccnc1NC2=NC1CCCC1 (stereo not given)
78 | 4.57 | – | Cc1ccc(-n2nnc(C(=O)NC3CCCCC3)c2N)cc1
79 | 4.71 | – | O=C(CCSc1ccc(Cl)cc1)c1cccs1
80 | 5.15 | – | O=C(NCc1ccc2c(c1)OCO2)c1cc2c(s1)-c1ccccc1OC2
81 | 5.10 | – | O=C(Nc1ccc2c(c1)OCO2)c1[nH]nc2c1CCc1ccccc1-2
82 | 5.74 | – | O=C(Cn1nc2c3c4c(sc3ncn2c1=O)CCCCC4)Nc1ccc(Cl)cc1F
83 | 4.78 | – | Cc1cccc(NC(=O)c2nn(C)c3ccccc3c2=O)c1
84 | – | > 50 µM (inactive) | Cc1ccc2c(c1)[C@]1(C(=O)N2)[C@@H]2C(=O)N(c3cccc(C(F)(F)F)c3)C(=O)[C@@H]2C2CCCN21 (stereo not given in full)
85 | 5.11 | – | Cc1cc(N2CCN(c3ncccn3)CC2)nc2ccc(NC(=O)/C=C/c3ccccc3Cl)cc12
86 | 4.99 | – | CNC(=O)c1c2n(c3ncccc13)CCN(S(=O)(=O)c1ccc(-c3ccccc3)cc1)C2
87 | – | > 50 µM (inactive) | FC(F)(F)c1ccccc1CCN1CCc2nc3ncc(Cl)cc3cc2C1
88 | – | > 50 µM (inactive) | COCCNC(=O)c1cc(-c2cn(-c3ccccn3)c(C)n2)n2ccccc12
89 | 5.56 | – | COc1cc(Cn2cnc3c([nH]c4ccc(Br)cc43)c2=O)cc(OC)c1
90 | 7.25 | – | O=c1ccc(-c2noc(Cc3cccc(Cl)c3)n2)c[nH]1
91 | 4.43 | – | COc1ccc(NC(=O)C2[C@@H]3C(=O)N(C4CCCCC4)C(=O)[C@@H]3[C@H]3c4ccccc4C=CN23)cc1 (stereo not given in full)
92 | 5.88 | – | COc1cc2c(cc1NC(=O)c1ccc(-n3cnnn3)cc1)oc1ccccc12
93 | – | > 50 µM (inactive) | O=C(NCc1nc(-c2ccc3c(c2)[nH]c(=O)n3C2CCCC2)no1)c1ccccc1
94 | – | > 50 µM (inactive) | CCN(CC(=O)Nc1cc(C)on1)c1cccc2ccccc12
95 | 4.81 | – | Cc1ccc2c(c1)c(=O)c(C(=O)c1ccccc1)cn2CC(=O)Nc1ccccc1
